Data: PubChem BioAssay (NCI)
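Step 1: Grow cells in 96-well plates. Step 2: Expose to compound for 48 hours at 5 concentrations. Step 3: Interpolate endpoints linearly; if unreached, use highest concentration. At the TGI there is no net growth.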

Columns and labels:
Assay in all cases: NCI tumour cell line growth inhibition, 48 h
HOP-18 NSCLC = system: HOP-18 NSCLC
DMS 273 small cell lung = system: DMS 273 small cell lung
SF-539 CNS = system: SF-539 CNS
M14 melanoma = system: M14 melanoma
OVCAR-8 ovarian = system: OVCAR-8 ovarian
A549 NSCLC = system: A549 NSCLC
SNB-19 CNS = system: SNB-19 CNS
DMS 114 small cell lung = system: DMS 114 small cell lung
LXFL 529 NSCLC = system: LXFL 529 NSCLC
OVCAR-5 ovarian = system: OVCAR-5 ovarian
U251 CNS = system: U251 CNS
HT29 colon = system: HT29 colon
RPMI-8226 leukemia = system: RPMI-8226 leukemia
SK-MEL-28 melanoma = system: SK-MEL-28 melanoma
K-562 leukemia = system: K-562 leukemia
NCI-H23 lung = system: NCI-H23 lung
SK-MEL-2 melanoma = system: SK-MEL-2 melanoma
HCC-2998 colon = system: HCC-2998 colon
KM12 colon = system: KM12 colon
ACHN renal = system: ACHN renal
COLO 205 colon = system: COLO 205 colon
OVCAR-3 ovarian = system: OVCAR-3 ovarian
TK-10 renal = system: TK-10 renal
NCI-H460 lung = system: NCI-H460 lung
IGROV1 ovarian = system: IGROV1 ovarian
CCRF-CEM leukemia = system: CCRF-CEM leukemia
HOP-92 NSCLC = system: HOP-92 NSCLC
UO-31 renal = system: UO-31 renal
UACC-257 melanoma = system: UACC-257 melanoma
XF 498 CNS = system: XF 498 CNS
MALME-3M melanoma = system: MALME-3M melanoma
NCI-H522 lung = system: NCI-H522 lung
RXF 393 renal = system: RXF 393 renal
SK-OV-3 ovarian = system: SK-OV-3 ovarian
NCI-H226 lung = system: NCI-H226 lung
SW-620 colon = system: SW-620 colon
SK-MEL-5 melanoma = system: SK-MEL-5 melanoma
SF-268 CNS = system: SF-268 CNS
MOLT-4 leukemia = system: MOLT-4 leukemia
SN12C renal = system: SN12C renal
EKVX NSCLC = system: EKVX NSCLC
786-0 renal = system: 786-0 renal
DLD-1 colon = system: DLD-1 colon
HCT-15 colon = system: HCT-15 colon
HL-60(TB) leukemia = system: HL-60(TB) leukemia
SR leukemia = system: SR leukemia
M19-MEL melanoma = system: M19-MEL melanoma
SF-295 CNS = system: SF-295 CNS
LOX IMVI melanoma = system: LOX IMVI melanoma
HCT-116 colon = system: HCT-116 colon
SNB-78 CNS = system: SNB-78 CNS
KM20L2 colon = system: KM20L2 colon
A498 renal = system: A498 renal
UACC-62 melanoma = system: UACC-62 melanoma
HOP-62 NSCLC = system: HOP-62 NSCLC
OVCAR-4 ovarian = system: OVCAR-4 ovarian
SNB-75 CNS = system: SNB-75 CNS
CAKI-1 renal = system: CAKI-1 renal

CC1CCC2(OCCO2)[C@]2(C)CC(O)C(=O)C=C12 (some centres undefined)
TGI (HOP-18 NSCLC): > 100 µM
TGI (DMS 273 small cell lung): > 100 µM
TGI (SF-539 CNS): > 100 µM
TGI (M14 melanoma): > 100 µM
TGI (OVCAR-8 ovarian): > 100 µM
TGI (A549 NSCLC): > 100 µM
TGI (SNB-19 CNS): > 100 µM
TGI (DMS 114 small cell lung): > 100 µM
TGI (LXFL 529 NSCLC): > 100 µM
TGI (OVCAR-5 ovarian): > 100 µM
TGI (U251 CNS): > 100 µM
TGI (HT29 colon): > 100 µM
TGI (RPMI-8226 leukemia): > 100 µM
TGI (SK-MEL-28 melanoma): > 100 µM
TGI (K-562 leukemia): > 100 µM
TGI (NCI-H23 lung): > 100 µM
TGI (SK-MEL-2 melanoma): > 100 µM
TGI (HCC-2998 colon): > 100 µM
TGI (KM12 colon): > 100 µM
TGI (ACHN renal): > 100 µM
TGI (COLO 205 colon): > 100 µM
TGI (OVCAR-3 ovarian): > 100 µM
TGI (TK-10 renal): > 100 µM
TGI (NCI-H460 lung): > 100 µM
TGI (IGROV1 ovarian): > 100 µM
TGI (CCRF-CEM leukemia): > 100 µM
TGI (HOP-92 NSCLC): > 100 µM
TGI (UO-31 renal): > 100 µM
TGI (UACC-257 melanoma): > 100 µM
TGI (XF 498 CNS): > 100 µM
TGI (MALME-3M melanoma): > 100 µM
TGI (NCI-H522 lung): > 100 µM
TGI (RXF 393 renal): > 100 µM
TGI (SK-OV-3 ovarian): > 100 µM
TGI (NCI-H226 lung): > 100 µM
TGI (SW-620 colon): > 100 µM
TGI (SK-MEL-5 melanoma): > 100 µM
TGI (SF-268 CNS): > 100 µM
TGI (MOLT-4 leukemia): > 100 µM
TGI (SN12C renal): > 100 µM
TGI (EKVX NSCLC): > 100 µM
TGI (786-0 renal): > 100 µM
TGI (DLD-1 colon): > 100 µM
TGI (HCT-15 colon): > 100 µM
TGI (HL-60(TB) leukemia): > 100 µM
TGI (SR leukemia): > 100 µM
TGI (M19-MEL melanoma): > 100 µM
TGI (SF-295 CNS): > 100 µM

O=S1(=O)OCCOS(=O)(=O)C1(Br)Cc1ccccc1
TGI (DMS 273 small cell lung): > 100 µM
TGI (SF-539 CNS): > 100 µM
TGI (M14 melanoma): > 100 µM
TGI (OVCAR-8 ovarian): > 100 µM
TGI (A549 NSCLC): > 100 µM
TGI (SNB-19 CNS): > 100 µM
TGI (LOX IMVI melanoma): > 100 µM
TGI (DMS 114 small cell lung): > 100 µM
TGI (LXFL 529 NSCLC): > 100 µM
TGI (OVCAR-5 ovarian): > 100 µM
TGI (U251 CNS): > 100 µM
TGI (HCT-116 colon): > 100 µM
TGI (HT29 colon): > 100 µM
TGI (SNB-78 CNS): > 100 µM
TGI (RPMI-8226 leukemia): > 100 µM
TGI (SK-MEL-28 melanoma): > 100 µM
TGI (K-562 leukemia): > 100 µM
TGI (NCI-H23 lung): > 100 µM
TGI (SK-MEL-2 melanoma): > 100 µM
TGI (HCC-2998 colon): > 100 µM
TGI (ACHN renal): > 100 µM
TGI (KM20L2 colon): > 100 µM
TGI (COLO 205 colon): > 100 µM
TGI (OVCAR-3 ovarian): > 100 µM
TGI (TK-10 renal): > 100 µM
TGI (NCI-H460 lung): > 100 µM
TGI (IGROV1 ovarian): > 100 µM
TGI (CCRF-CEM leukemia): > 100 µM
TGI (HOP-92 NSCLC): > 100 µM
TGI (UO-31 renal): > 100 µM
TGI (A498 renal): > 100 µM
TGI (UACC-62 melanoma): > 100 µM
TGI (UACC-257 melanoma): > 100 µM
TGI (XF 498 CNS): > 100 µM
TGI (MALME-3M melanoma): > 100 µM
TGI (NCI-H522 lung): > 100 µM
TGI (RXF 393 renal): > 100 µM
TGI (SK-OV-3 ovarian): > 100 µM
TGI (NCI-H226 lung): > 100 µM
TGI (SW-620 colon): > 100 µM
TGI (SK-MEL-5 melanoma): > 100 µM
TGI (SF-268 CNS): > 100 µM
TGI (MOLT-4 leukemia): > 100 µM
TGI (SN12C renal): > 100 µM
TGI (EKVX NSCLC): > 100 µM
TGI (786-0 renal): > 100 µM
TGI (HOP-62 NSCLC): > 100 µM
TGI (DLD-1 colon): > 100 µM
TGI (OVCAR-4 ovarian): > 100 µM
TGI (HCT-15 colon): > 100 µM
TGI (HL-60(TB) leukemia): > 100 µM
TGI (SR leukemia): > 100 µM
TGI (M19-MEL melanoma): > 100 µM
TGI (SNB-75 CNS): > 100 µM
TGI (SF-295 CNS): > 100 µM

COC(=O)/C(=N\NC(=O)c1ccccc1O)C(C#N)c1ccccc1 (centres undefined)
TGI (DMS 273 small cell lung): > 50 µM
TGI (SF-539 CNS): > 43.3 µM
TGI (M14 melanoma): > 50 µM
TGI (OVCAR-8 ovarian): > 50 µM
TGI (A549 NSCLC): > 50 µM
TGI (SNB-19 CNS): > 50 µM
TGI (LOX IMVI melanoma): > 50 µM
TGI (DMS 114 small cell lung): > 50 µM
TGI (LXFL 529 NSCLC): > 50 µM
TGI (OVCAR-5 ovarian): > 50 µM
TGI (U251 CNS): > 50 µM
TGI (HCT-116 colon): > 50 µM
TGI (HT29 colon): > 50 µM
TGI (SNB-78 CNS): > 50 µM
TGI (RPMI-8226 leukemia): > 50 µM
TGI (SK-MEL-28 melanoma): > 50 µM
TGI (K-562 leukemia): > 50 µM
TGI (NCI-H23 lung): > 40.7 µM
TGI (SK-MEL-2 melanoma): > 50 µM
TGI (HCC-2998 colon): > 50 µM
TGI (KM12 colon): > 50 µM
TGI (ACHN renal): > 50 µM
TGI (KM20L2 colon): > 50 µM
TGI (COLO 205 colon): > 50 µM
TGI (OVCAR-3 ovarian): > 40.6 µM
TGI (TK-10 renal): > 50 µM
TGI (NCI-H460 lung): > 50 µM
TGI (IGROV1 ovarian): > 50 µM
TGI (CCRF-CEM leukemia): > 50 µM
TGI (HOP-92 NSCLC): > 50 µM
TGI (CAKI-1 renal): > 50 µM
TGI (UO-31 renal): 37.6 µM
TGI (A498 renal): > 48.4 µM
TGI (UACC-62 melanoma): > 32.8 µM
TGI (UACC-257 melanoma): > 50 µM
TGI (XF 498 CNS): > 50 µM
TGI (MALME-3M melanoma): > 50 µM
TGI (NCI-H522 lung): > 50 µM
TGI (RXF 393 renal): 34.1 µM
TGI (SK-OV-3 ovarian): > 50 µM
TGI (NCI-H226 lung): 46.1 µM
TGI (SW-620 colon): > 50 µM
TGI (SK-MEL-5 melanoma): > 50 µM
TGI (SF-268 CNS): > 50 µM
TGI (MOLT-4 leukemia): > 50 µM
TGI (SN12C renal): > 50 µM
TGI (EKVX NSCLC): > 48.4 µM
TGI (786-0 renal): > 50 µM
TGI (HOP-62 NSCLC): > 50 µM
TGI (DLD-1 colon): > 50 µM
TGI (OVCAR-4 ovarian): > 50 µM
TGI (HCT-15 colon): > 50 µM
TGI (HL-60(TB) leukemia): > 50 µM
TGI (M19-MEL melanoma): > 50 µM
TGI (SNB-75 CNS): > 50 µM
TGI (SF-295 CNS): > 50 µM
